The results in this text go back to ChEMBL document CHEMBL2321761, “Discovery of novel dual inhibitors of the wild-type and the most prevalent drug-resistant mutant, S31N, of the M2 proton channel from influenza A virus” (J Med Chem, 2013).

Molecules are shown by their SMILES. Activity calls are given as the source filed them. The rule behind the calls is not given here.

For experiment [1], the system named is Influenza A virus. Kind of experiment: Antiviral activity against influenza A virus A/WSN/33-S31N infected in dog MDCK cells after 2 days by naphthalene black dye staining based plaque reduction assay. Format: functional, organism-based. (Plaques are areas of infected cells; plaque reduction assays count them against a control.)
For experiment [2], the system named is Influenza A virus. Kind of experiment: Antiviral activity against wild type influenza A virus A/WSN/33-N31S infected in dog MDCK cells at 1 uM after 2 days by naphthalene black dye staining based plaque reduction assay. The format is functional, organism-based.

Molecule `NC12CC3CC(CC(C3)C1)C2` [AMANTADINE] yielded an EC50 in the experiment on Influenza A virus [1] of 22.5 µM.
`Oc1ccc(CNC23CC4CC(CC(C4)C2)C3)c(O)c1`: the inhibition result with Influenza A virus [2] was “Active”. In the experiment with Influenza A virus [1], this molecule yielded an EC50 of 3.2 µM.

Usually EC50 stands for the midpoint of the concentration-response curve. Higher therefore signals weaker potency.
